Results on one molecule are retold here after ChEMBL document CHEMBL5375946, “Discovery of KB-0742, a Potent, Selective, Orally Bioavailable Small Molecule Inhibitor of CDK9 for MYC-Dependent Cancers” (J Med Chem, 2023).

Broadly, the fraction unbound is free concentration divided by total concentration. Usually share remaining stands for the share of the starting amount still present when the sample was taken.

Data set [1] can be described thus: in vitro. As to conditions: rat, plasma.
Data set [2] can be described thus: in vitro. As to conditions: dog, plasma.
A short description of data set [3]: in vitro. The note with it: human, plasma.
Data set [4] in a line: in vitro. The note with it: mouse, plasma.
The nature of data set [5]: in vitro. As to conditions: dog, liver microsomes. (Liver microsomes are vesicles of endoplasmic reticulum, rich in cytochrome P450 enzymes.)

Each structure is given as a SMILES string.

`CCC(CC)c1cc(N[C@H]2CC[C@H](N)C2)n2nccc2n1` [ISTISOCICLIB]: the fraction unbound at 10 µM is 0.59 in “in vitro [1]”, 0.28 in the data set “in vitro [2]”, 0.62 in “in vitro [3]” and 0.52 in “in vitro [4]”. For the same molecule, the amount remaining at 3 h in the data set “in vitro [5]” was determined as 68.8%.
